Laboratory results published in patent publication US11135143B2, “Oral care compositions comprising tin ions” (The Procter & Gamble Company, priority 2020, dated 2021).

Tests used:
[1] = system: Human gingival epithelial (HGE) cell; test: Barrier protection analysis by real time cell analyzer (RTCA), impedance / Cell Index; format: cell-based; details: HGE cells
Protocol: Cell Culture Human gingival epithelial (HGE) cell was maintained in a 37° C. incubator with 5% CO2 saturation. Dulbecco's modified Eagle's medium (DMEM, Gibco) containing 10% fetal calf serum, 1% penicillin-streptomycin was used as the complete culture medium, which was changed every 2-3 days. Barrier Protection Analysis by Real Time Cell Analyzer (RTCA) The real time cell analyzer (RTCA) xCELLigence RTCA DP (ACEA Bioscience Inc., San Diego, Calif.) equipment, based on impedance measurement, was used to monitor the barrier protection of polyols. 50 μl complete culture medium was added to E-plates to obtain background readings, followed by the addition of 100 μl of the cell suspension. The E-plates containing 28000 cell/well were incubated at 37° C., 5% CO2 for 22-24 h until cells were confluent. The culture medium was changed to DMEM or DMEM with 1% of polyols, non reducing sugars or combinations and incubated at 37° C., 5% CO2 for 2 h. The barrier disruptor (capsaicin to a final concentration of 75 μM in this case) was added to wells of E-plate. Impedance as reflected by the Cell Index (CI) was recorded continuously for 16-24 h. The CI curve was normalized at the time point just before adding polyols. The normalized CI at 3 h after adding of barrier disruptor was compared to blank control to generate the percentage of barrier function % comprimisation.

[2] = Solubility of tin ions (SnF2) in polyol solutions at various pH; format: physicochemical; details: for Appearance of polyol solution with SnF2 (cloudy = formation of Sn(OH)2): pH 8-10, pH raised with NaOH; for Appearance of polyol solution with stannous fluoride: every point above pH of 4
Protocol: Solubility of Tin Ions at a pH of Greater than 7
A 30% (w/w) solution was prepared for each polyol or combination of polyols was prepared using the appropriate amount of the pure polyol and deionized water. Next, 46 g of the 30% (w/w) polyol solution was placed in a 250 mL glass beaker with a stirring bar on top of a magnetic stirring apparatus. 21 g of deionized water was added to the glass beaker and the magnetic stirring apparatus was started to commence stirring of the solution. A pH electrode was connected to a pH meter (VWR Scientific, Model 9100, Radnor, Pa.) and the pH electrode (ThermoFisher Scientific, Orion 8165BNWP, Waltham, Mass.) was placed in the stirring polyol solution.
0.45 grams of a tin ion source, such as stannous fluoride, was added to the stirring polyol solution. The pH was recorded once the tin ion source was completely added. The pH of the solution was increased by dropwise addition of a 33% (w/w) solution of NaOH.
Solubility of Tin Ions at a pH of Less than 7
0.45 grams of a tin ion source, such as stannous fluoride, was added to the stirring polyol solution. The pH was recorded once the tin ion source was completely added. The pH of the solution was decreased by dropwise addition of a 33% (w/w) solution of HCl.
A solution that appeared cloudy indicated the formation of insoluble tin complexes. At a pH of greater than 7, a cloudy solution indicated the formation of Sn(OH)2. FIG. 1-6 illustrate TABLE 1 by showing the appearance of each solution described in TABLE 1.

[3] = DMEM with 1% polyol(s) for 2 h, then capsaicin 75 μM, normalized CI at 3 h after barrier disruptor compared to blank control (100%)
[4] = pH 2-4, 30% (w/w) polyol solution diluted with water, 0.45 g stannous fluoride, pH lowered with HCl

Row | Compound | Barrier Function ([1]; barrier disruptor capsaicin 75 μM alone, no polyol, normalized CI at 3 h compared to blank control (100%)) | Barrier Function ([1]; barrier disruptor capsaicin 75 μM alone, no polyol, normalized CI at 3 h compared to blank control (100%), listed as capsaicin) | Barrier Function [1, 3] | Barrier Function ([1]; DMEM with 1% polyol(s) for 2 h, then capsaicin 75 μM, normalized CI at 3 h after barrier disruptor compared to blank control (100%), listed as glycerin) | Barrier Function ([1]; DMEM with 1% polyol(s) for 2 h, then capsaicin 75 μM, normalized CI at 3 h after barrier disruptor compared to blank control (100%), listed as sorbitol) | Appearance of polyol solution with SnF2 (cloudy = formation of insoluble tin complexes) [2, 4] | Appearance of polyol solution with SnF2 (cloudy = formation of insoluble tin complexes) ([2]; pH 4-6) | Appearance of polyol solution with SnF2 (cloudy = formation of insoluble tin complexes) ([2]; pH 6-8) | Appearance of polyol solution with SnF2 (cloudy = formation of Sn(OH)2) [2] | Appearance of polyol solution with stannous fluoride [2]
1 | COc1cc(CNC(=O)CCCC/C=C/C(C)C)ccc1O [Capsaicin, capsaicin, reference compound] | 28% | 28% | – | – | – | – | – | – | – | –
2 | OCC(O)CO [Glycerin, reference compound] | – | – | 44% | 44% | – | – | – | – | – | –
3 | OC[C@@H](O)[C@@H](O)[C@H](O)[C@@H](O)CO [Sorbitol] | – | – | 46% | – | 46% | clear | cloudy | cloudy | clear | –
4 | OC[C@H]1O[C@H](O[C@H]2O[C@H](CO)[C@@H](O)[C@H](O)[C@H]2O)[C@H](O)[C@@H](O)[C@@H]1O [Trehalose] | – | – | 102% | – | – | clear | cloudy | cloudy | cloudy | cloudy
5 | Isomalt | – | – | 85% | – | – | clear | cloudy | cloudy | cloudy | cloudy
